Measured values reported in ChEMBL document CHEMBL4665860, “Focused structure-activity relationship profiling around the 2-phenylindole scaffold of a cannabinoid type-1 receptor agonist-positive allosteric modulator: site-III aromatic-ring congeners with enhanced activity and solubility” (Bioorg Med Chem, 2020).
pEC50: −log10 of the molar value. Converted amounts (≈) assume the structure as drawn.

Columns and labels:
Cannabinoid receptor 1 [1] = molecular target: T1, Cannabinoid receptor 1 (Homo sapiens, UniProt P21554); assay: Positive allosteric modulatory activity at human CB1 receptor expressed in CHO-K1 cells assessed as increase in CP55940-induced inhibition of forskolin-stimulated cAMP production preincubated for 30 mins followed by CP55940 addition and measured after 60 mins by Hit-hunter assay relative to control; assay type: functional, cell-based
Cannabinoid receptor 1 [2] = molecular target: T1, Cannabinoid receptor 1; assay: Positive allosteric modulatory activity at human CB1 receptor expressed in CHO-K1 cells assessed as increase in CP55940-induced inhibition of forskolin-stimulated cAMP production preincubated for 30 mins […] by Hit-hunter assay; assay type: functional, cell-based
Cannabinoid receptor 1 [3] = molecular target: T1, Cannabinoid receptor 1; assay: Positive allosteric modulatory activity at human CB1 receptor expressed in CHO-K1 cells assessed as increase in CP55940-induced beta-arrestin recruitment […] and measured after 60 mins by PathHunter assay; assay type: cell-based
Cannabinoid receptor 1 [4] = molecular target: T1, Cannabinoid receptor 1; assay: Positive allosteric modulatory activity at human CB1 receptor expressed in CHO-K1 cells assessed as increase in CP55940-induced beta-arrestin recruitment preincubated 90 mins followed by CP55940 addition and measured after 60 mins by PathHunter assay relative to CP55940; assay type: cell-based
physchem = details: PBS, pH 7.4
[5] = filed as positive allosteric modulator

T1 sequence (P21554 whole entry): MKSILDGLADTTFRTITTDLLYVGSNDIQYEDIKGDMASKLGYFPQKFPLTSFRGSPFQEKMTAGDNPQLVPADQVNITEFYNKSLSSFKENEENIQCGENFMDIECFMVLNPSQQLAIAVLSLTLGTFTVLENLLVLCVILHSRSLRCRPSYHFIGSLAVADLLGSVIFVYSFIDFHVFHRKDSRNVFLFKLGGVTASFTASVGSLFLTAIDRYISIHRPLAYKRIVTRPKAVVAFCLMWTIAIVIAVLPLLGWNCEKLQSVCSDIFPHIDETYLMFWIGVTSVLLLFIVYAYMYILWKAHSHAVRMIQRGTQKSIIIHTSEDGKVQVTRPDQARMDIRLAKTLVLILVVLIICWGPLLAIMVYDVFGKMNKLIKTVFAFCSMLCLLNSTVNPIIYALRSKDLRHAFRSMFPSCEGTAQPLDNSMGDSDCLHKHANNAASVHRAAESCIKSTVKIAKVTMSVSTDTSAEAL

| Structure (SMILES) | Emax (Cannabinoid receptor 1 [1]; [5]) | pEC50 (Cannabinoid receptor 1 [2]) | pEC50 (Cannabinoid receptor 1 [3]) | Emax (Cannabinoid receptor 1 [4]) | Emax (Cannabinoid receptor 1 [4]; [5]) | Emax (Cannabinoid receptor 1 [1]) | solubility kinetic at 2 h (physchem) |
| --- | --- | --- | --- | --- | --- | --- | --- |
| O=[N+]([O-])CC(c1ccccc1N1CCCC1)c1c(-c2ccccc2)[nH]c2ccccc12 (stereo not drawn) | 75.9% | 5.74 | < 5.00 | 7.28% | – | – | – |
| O=[N+]([O-])CC(c1ccccc1F)c1c(-c2ccccc2)[nH]c2ccccc12 (stereo not drawn) | – | – | 6.11 | – | 56% | – | – |
| COc1ccccc1C(C[N+](=O)[O-])c1c(-c2ccccc2)[nH]c2ccccc12 (stereo not drawn) | 118% | 6.39 | 5.73 | 37% | – | – | – |
| O=[N+]([O-])CC(Cc1ccccc1)c1c(-c2ccccc2)[nH]c2ccccc12 (stereo not drawn) | 115% | 6.38 | < 5.00 | 0% | – | – | – |
| O=[N+]([O-])CC(c1ccc(Cl)cc1)c1c(-c2ccccc2)[nH]c2ccccc12 (stereo not drawn) | 74.8% | 5.88 | < 5.00 | 0% | – | – | – |
| O=[N+]([O-])CC(c1ccc(N2CCOCC2)cc1)c1c(-c2ccccc2)[nH]c2ccccc12 (stereo not drawn) | 87.6% | < 5.00 | < 5.00 | 0% | – | – | – |
| Cc1cccc(C(C[N+](=O)[O-])c2c(-c3ccccc3)[nH]c3ccccc23)c1 (stereo not drawn) | 116% | 6.18 | 5.70 | 23.8% | – | – | – |
| O=[N+]([O-])CC(c1c(-c2ccccc2)[nH]c2ccccc12)C1CCCCC1 (stereo not drawn) | 117% | 6.31 | 5.72 | 26.8% | – | – | – |
| O=[N+]([O-])CC(c1ccc(F)cc1)c1c(-c2ccccc2)[nH]c2ccccc12 (stereo not drawn) | – | – | < 5.00 | – | – | – | – |
| O=[N+]([O-])CC(c1ccccc1Cl)c1c(-c2ccccc2)[nH]c2ccccc12 (stereo not drawn) | 75% | 7.74 | 5.91 | – | 93.4% | – | – |
| O=[N+]([O-])CC(c1ccccc1)c1c(-c2ccccc2)[nH]c2ccccc12 (stereo not drawn) | 99.6% | – | – | – | 54.1% | – | – |
| O=[N+]([O-])CC(c1ccc[nH]1)c1c(-c2ccccc2)[nH]c2ccccc12 (stereo not drawn) | 77.1% | 6.68 | < 5.00 | 0.7% | – | – | – |
| CC(C)(C)c1ccc(C(C[N+](=O)[O-])c2c(-c3ccccc3)[nH]c3ccccc23)cc1 (stereo not drawn) | 109% | 6.69 | < 5.00 | 5.57% | – | – | – |
| O=[N+]([O-])CC(c1cccc2ccccc12)c1c(-c2ccccc2)[nH]c2ccccc12 (stereo not drawn) | 62.2% | < 5.00 | < 5.00 | 0% | – | – | – |
| O=[N+]([O-])CC(c1ncco1)c1c(-c2ccccc2)[nH]c2ccccc12 (stereo not drawn) | 56.6% | 6.07 | < 5.00 | 3.21% | – | – | – |
| O=[N+]([O-])CC(c1cccc(N2CCCC2)c1)c1c(-c2ccccc2)[nH]c2ccccc12 (stereo not drawn) | 110% | 6.37 | < 5.00 | 6.69% | – | – | – |
| O=[N+]([O-])CC(c1ccc(-c2ccccc2)cc1)c1c(-c2ccccc2)[nH]c2ccccc12 (stereo not drawn) | – | < 5.00 | < 5.00 | 5% | – | 25.5% | – |
| O=[N+]([O-])CC(c1ccsc1)c1c(-c2ccccc2)[nH]c2ccccc12 (stereo not drawn) | 125% | 6.92 | 5.79 | 23.9% | – | – | – |
| Cn1cncc1C(C[N+](=O)[O-])c1c(-c2ccccc2)[nH]c2ccccc12 (stereo not drawn) | 46.1% | < 5.00 | < 5.00 | 0% | – | – | – |
| Cc1ccc(C(C[N+](=O)[O-])c2c(-c3ccccc3)[nH]c3ccccc23)cc1 (stereo not drawn) | 119% | 5.84 | < 5.00 | 0% | – | – | – |
| O=[N+]([O-])CC(c1nccs1)c1c(-c2ccccc2)[nH]c2ccccc12 (stereo not drawn) | 83.7% | 6.72 | 6.48 | 32.6% | – | – | – |

| Structure (SMILES) | Emax (Cannabinoid receptor 1 [1]; [5]) | pEC50 (Cannabinoid receptor 1 [2]) | pEC50 (Cannabinoid receptor 1 [3]) | Emax (Cannabinoid receptor 1 [4]) | Emax (Cannabinoid receptor 1 [4]; [5]) | Emax (Cannabinoid receptor 1 [1]) | solubility kinetic at 2 h (physchem) |
| --- | --- | --- | --- | --- | --- | --- | --- |
| O=[N+]([O-])CC(c1ccoc1)c1c(-c2ccccc2)[nH]c2ccccc12 (stereo not drawn) | 144% | 6.29 | < 5.00 | 12.9% | – | – | – |
| O=[N+]([O-])CC(c1ccc(C(F)(F)F)cc1)c1c(-c2ccccc2)[nH]c2ccccc12 (stereo not drawn) | 65.1% | < 5.00 | < 5.00 | 0% | – | – | – |
| Cc1ccc2c(C(C[N+](=O)[O-])c3cccs3)c(-c3ccccc3)[nH]c2c1 (stereo not drawn) | – | 7.48 | 6.42 | – | 78.2% | – | 1.56 µM (≈ 0.565 µg/mL) |
| Cc1ccc2c(C(C[N+](=O)[O-])c3ncco3)c(-c3ccccc3)[nH]c2c1 (stereo not drawn) | 67.2% | 6.58 | < 5.00 | 14.5% | – | – | 12.5 µM (≈ 4.34 µg/mL) |
| O=[N+]([O-])CC(c1ccccc1C(F)(F)F)c1c(-c2ccccc2)[nH]c2ccccc12 (stereo not drawn) | 86.2% | 6.25 | 6.10 | – | 68.1% | – | – |
| O=[N+]([O-])CC(c1ccc2ccccc2c1)c1c(-c2ccccc2)[nH]c2ccccc12 (stereo not drawn) | 113% | 6.32 | 5.63 | 31.8% | – | – | – |
| Cn1cnc(C(C[N+](=O)[O-])c2c(-c3ccccc3)[nH]c3ccccc23)c1 (stereo not drawn) | – | < 5.00 | < 5.00 | 0.667% | – | 34.4% | – |
| O=[N+]([O-])CC(c1ccc(N2CCCC2)cc1)c1c(-c2ccccc2)[nH]c2ccccc12 (stereo not drawn) | 97.4% | 6.21 | < 5.00 | 0% | – | – | – |
| Cn1ccnc1C(C[N+](=O)[O-])c1c(-c2ccccc2)[nH]c2ccccc12 (stereo not drawn) | 52.7% | 6.27 | < 5.00 | 0% | – | – | – |
| O=[N+]([O-])CC(c1c(Cl)cccc1Cl)c1c(-c2ccccc2)[nH]c2ccccc12 (stereo not drawn) | 128% | 6.24 | < 5.00 | 3.72% | – | – | – |
| O=[N+]([O-])CC(c1cccc(F)c1)c1c(-c2ccccc2)[nH]c2ccccc12 (stereo not drawn) | 118% | – | < 5.00 | 15.7% | – | – | – |
| O=[N+]([O-])CC(c1cccc(Cl)c1)c1c(-c2ccccc2)[nH]c2ccccc12 (stereo not drawn) | 121% | 6.07 | 5.53 | 16% | – | – | – |
| COc1cccc(C(C[N+](=O)[O-])c2c(-c3ccccc3)[nH]c3ccccc23)c1 (stereo not drawn) | 131% | 6.18 | < 5.00 | 4.96% | – | – | – |
| Cc1ccccc1C(C[N+](=O)[O-])c1c(-c2ccccc2)[nH]c2ccccc12 (stereo not drawn) | 81.7% | 8.52 | 7.24 | – | 68.5% | – | – |
| O=[N+]([O-])CC(c1cccs1)c1c(-c2ccccc2)[nH]c2ccccc12 (stereo not drawn) | 116% | 7.51 | 6.23 | 36.1% | – | – | – |
| COc1ccc(C(C[N+](=O)[O-])c2c(-c3ccccc3)[nH]c3ccccc23)cc1 (stereo not drawn) | 119% | 5.93 | < 5.00 | 0% | – | – | – |
| O=[N+]([O-])CC(c1cccc(C(F)(F)F)c1)c1c(-c2ccccc2)[nH]c2ccccc12 (stereo not drawn) | 151% | 6.90 | < 5.00 | 0% | – | – | – |
| O=[N+]([O-])CC(c1ccco1)c1c(-c2ccccc2)[nH]c2ccccc12 (stereo not drawn) | 99.8% | 6.61 | 6.18 | 28.8% | – | – | – |
| O=[N+]([O-])CC(c1ccc(N2CCCCC2)cc1)c1c(-c2ccccc2)[nH]c2ccccc12 (stereo not drawn) | 125% | 6.32 | 5.61 | – | 42.1% | – | – |
| Cc1ccc2c(C(C[N+](=O)[O-])c3nccs3)c(-c3ccccc3)[nH]c2c1 (stereo not drawn) | 98.5% | 7.30 | 6.79 | – | 80.6% | – | 3.13 µM (≈ 1.14 µg/mL) |
